ChEMBL document CHEMBL4651402, “Screening of ~5500 FDA-approved drugs and clinical candidates for anti-SARS-CoV-2 activity” (2021)

Tested on: SARS-CoV-2
Assay: microbe, parasite or virus in culture
Conditions: Severe acute respiratory syndrome coronavirus 2, Vero C1008, 48 h

| SMILES | IC50 [µM] | IC50 (read-out: pIC50 (converted)) [µM] |
| --- | --- | --- |
| C[C@H](O)[C@H](O)[C@H]1CNc2nc(N)[nH]c(=O)c2N1 [SAPROPTERIN] | > 20 | > 20 |
| CCOc1ccc(Cc2cc([C@]34OC[C@](CO)(O3)[C@@H](O)[C@H](O)[C@H]4O)ccc2Cl)cc1 [ERTUGLIFLOZIN] | > 20 | > 20 |
| Cc1ccc(F)c(NC(=O)Nc2ccc(-c3cccc4[nH]nc(N)c34)cc2)c1 [LINIFANIB] | > 20 | > 20 |
| C[C@@H]1CC[C@]2(C(=O)O)CC[C@]3(C)C(=CCC4[C@@]5(C)CC[C@H](O)C(C)(C)C5CC[C@]43C)C2[C@H]1C (some centres undefined) | > 20 | > 20 |
| C=CCOc1ccccc1OCC(O)CNC(C)C (centres undefined) [OXPRENOLOL] | > 20 | > 20 |
| Cc1cn2nc([C@@H]3CCCCN3C(=O)c3cc(Cl)ccc3NS(C)(=O)=O)cc2nc1N1CC[C@H](N)C1 [PRESATOVIR] | > 20 | > 20 |
| CCCCN1CCCCC1C(=O)Nc1c(C)cccc1C (centres undefined) [BUPIVACAINE] | > 20 | > 20 |
| O=C(Nc1cccc(C2=NCCN2)c1)Nc1cccc(C2=NCCN2)c1 [IMIDOCARB] | > 20 | > 20 |
| CCC1=C[C@@H]2CN3CCc4c([nH]c5ccccc45)[C@@](C(=O)OC)(C2)[C@H]13 | > 20 | > 20 |
| O=C(O)COc1ccc(CCNS(=O)(=O)c2ccccc2)cc1 [SULOTROBAN] | > 20 | > 20 |
| COC(=O)OCOc1c2n(ccc1=O)N([C@@H]1c3ccccc3SCc3c1ccc(F)c3F)[C@@H]1COCCN1C2=O [BALOXAVIR MARBOXIL] | > 20 | > 20 |
| CN/C(=N\CCSCc1nc[nH]c1C)NC#N [CIMETIDINE] | > 20 | > 20 |
| O=C(O[C@@H]1Cc2c(O)cc(O)cc2O[C@@H]1c1cc(O)c(=O)c2c(O)c(O)cc([C@H]3Oc4cc(O)cc(O)c4C[C@H]3O)c2c1)c1cc(O)c(O)c(O)c1 [THEAFLAVIN MONOGALLATES] | > 20 | > 20 |
| C/C=C(\C)C(=O)OC1C(OC(C)=O)C2(CO)C(O)CC3(C)C(=CCC4C5(C)CCC(OC6OC(C(=O)O)C(OC7OC(CO)C(O)C(O)C7O)C(O)C6OC6OC(CO)C(O)C(O)C6O)C(C)(CO)C5CCC43C)C2CC1(C)C (centres undefined) | > 20 | > 20 |
| CN1CCN(C2Cc3ccccc3Sc3ccc(Cl)cc32)CC1 (centres undefined) [CLOROTEPINE] | > 20 | > 20 |
| CNCC(=O)O [SARCOSINE] | > 20 | > 20 |
| COC1=CC(=O)C[C@@H](C)[C@]12Oc1c(Cl)c(OC)cc(OC)c1C2=O [GRISEOFULVIN] | > 20 | > 20 |
| CCCCC1(COC(=O)CCC(=O)O)C(=O)N(c2ccccc2)N(c2ccccc2)C1=O [SUXIBUZONE] | > 20 | > 20 |
| Nc1ccc(C(=O)O)c(O)c1 [AMINOSALICYLIC ACID] | > 20 | > 20 |
| CC[C@@]1(O)C(=O)OCc2c1cc1n(c2=O)Cc2cc3c([N+](=O)[O-])cccc3nc2-1 [RUBITECAN] | > 20 | > 20 |
| O=c1c(-c2ccc(O)cc2)coc2cc(O)ccc12 [DAIDZEIN] | > 20 | > 20 |
| Nc1nccc2c1ncn2C1OC(CO)C(O)C1O (centres undefined) | > 20 | > 20 |
| CC[C@H]1OC(=O)[C@H](C)[C@@H](O[C@H]2C[C@@](C)(OC)[C@@H](O)[C@H](C)O2)[C@H](C)[C@@H](O[C@@H]2O[C@H](C)C[C@H](N(C)C)[C@H]2O)[C@](C)(O)C[C@@H](C)/C(=N\OCOCCOC)[C@H](C)[C@@H](O)[C@]1(C)O [ROXITHROMYCIN] | > 20 | > 20 |
| Cc1cc(C(=O)NCCc2ccc(S(=O)(=O)NC(=O)NN3CCCCCC3)cc2)no1 [GLISOXEPIDE] | > 20 | > 20 |

| SMILES | IC50 [µM] | IC50 (read-out: pIC50 (converted)) [µM] |
| --- | --- | --- |
| COc1cc2c(cc1OC)C(C)NCC2 (centres undefined) | > 20 | > 20 |
| CC(=O)OCC(=O)Nc1cc(C#N)cc(NC(=O)COC(C)=O)c1Cl [ACREOZAST] | > 20 | > 20 |
| O=S(=O)(O)c1cc(O)ccc1O [CALCIUM DOBESILATE] | > 20 | > 20 |
| CNC(=N)NCCC[C@H](N)C(=O)O [TILARGININE] | > 20 | > 20 |
| CC(=O)O[C@]1(C(C)=O)CC[C@H]2[C@@H]3C=C(Cl)C4=CC(=O)CC[C@]4(C)[C@H]3CC[C@@]21C [CHLORMADINONE ACETATE] | > 20 | > 20 |
| CC(C)N(CCC(c1ccccc1)c1ccccc1)C(C)C [DIISOPROMINE] | > 20 | > 20 |
| CCc1nc2ccc(Cl)cn2c1C(=O)NCc1ccc(N2CCC(c3ccc(OC(F)(F)F)cc3)CC2)cc1 [TELACEBEC] | > 20 | > 20 |
| COC1C(OC(=O)/C=C/C=C/C=C/C=C/C(=O)O)CCC2(CO2)C1C1(C)OC1CC=C(C)C (centres undefined) | > 20 | > 20 |
| NC(=O)c1nc(F)cnc1O | > 50.1 | > 50.1 |
| C[C@H]1C(=O)O[C@@H]2CCN3CC=C(COC(=O)[C@](C)(O)[C@]1(C)O)[C@H]23 [MONOCROTALINE] | > 20 | > 20 |
| O=C(O)c1cc(=O)c2c(OCC(O)COc3cccc4oc(C(=O)O)cc(=O)c34)cccc2o1 [CROMOLYN] | > 20 | > 20 |
| N[C@@H]1CCCCN(c2c(F)cc3c(=O)c(C(=O)O)cn(C4CC4)c3c2Cl)C1 [BESIFLOXACIN] | > 20 | > 20 |
| CCN1C(=O)OC(C)(C)C1=O [ETHADIONE] | > 20 | > 20 |
| C#CCN(C)C(C)Cc1ccccc1 (centres undefined) | > 20 | > 20 |
| Cn1nc(CO)nc1NCCCOc1cccc(CN2CCCCC2)c1 [LAVOLTIDINE] | > 20 | > 20 |
| Cc1cn([C@H]2C[C@H](O)[C@@H](CO)O2)c(=O)[nH]c1=O [DOXRIBTIMINE] | > 20 | > 20 |
| CC(C)C[C@H]1C(=O)N2CCC[C@H]2[C@]2(O)O[C@](NC(=O)[C@@H]3C=C4c5cccc6[nH]cc(c56)C[C@H]4N(C)C3)(C(C)C)C(=O)N12 [ERGOCRYPTINE] | > 20 | > 20 |
| CN1C2=CC(=O)/C(=N\NC(N)=O)C=C2CC1S(=O)(=O)O (centres undefined) [CARBAZOCHROME SULFONIC ACID] | > 20 | > 20 |
| Cc1ncc([N+](=O)[O-])n1CC(C)O (centres undefined) [SECNIDAZOLE] | > 20 | > 20 |
| OC[C@@H]1CCCN2CCCC[C@H]12 [LUPININE] | > 20 | > 20 |
| COc1ccccc1OCC(O)CN1CCN(CC(=O)Nc2c(C)cccc2C)CC1 (centres undefined) [RANOLAZINE] | > 20 | > 20 |
| NS(=O)(=O)c1ccc(N2CCN(CC[C@@H]3OCCc4ccccc43)CC2)cc1 [SONEPIPRAZOLE] | > 20 | > 20 |
| [2H]C([2H])([2H])O[C@@H]1CN(CCCOc2ccc(F)cc2)CC[C@@H]1NC(=O)c1cc(Cl)c(N)cc1OC | > 20 | > 20 |
| Nc1c(O)cccc1C(=O)CC(N)C(=O)O (centres undefined) | > 20 | > 20 |

| SMILES | IC50 [µM] | IC50 (read-out: pIC50 (converted)) [µM] |
| --- | --- | --- |
| Nc1ccccc1NC(=O)c1ccc(CNC(=O)OCc2cccnc2)cc1 [ENTINOSTAT] | > 20 | > 20 |
| CC(C)C[C@H](N)C(=O)O [LEUCINE] | > 20 | > 20 |
| CC(N/C(=N\C#N)Nc1ccncc1)C(C)(C)C (centres undefined) [PINACIDIL ANHYDROUS] | > 20 | > 20 |
| COc1ccccc1[C@H](Cn1c(=O)n(C(C)(C)C(=O)O)c(=O)c2c(C)c(-c3ncco3)sc21)OC1CCOCC1 [FIRSOCOSTAT] | > 20 | > 20 |
| C[14C](C)(c1ccc(O)cc1)c1ccc(O)cc1 | > 20 | > 20 |
| CCC(C)SSc1ncc[nH]1 (centres undefined) [PX-12] | > 20 | > 20 |
| COc1ccc(/C=C/C(=O)O)cc1OC | > 20 | > 20 |
| CNC(=O)c1ccc(C)c(-n2c(C)cc(OCc3ccc(F)cc3F)c(Br)c2=O)c1 [PH-797804] | > 20 | > 20 |
| NC1CCN(c2cccc(Cl)n2)CC1 | > 20 | > 20 |
| CCOC(=O)CN1CCN(C(=O)C=Cc2cc(OC)c(OC)c(OC)c2)CC1 | > 20 | > 20 |
| C[C@@H]1CCC2[C@H](C)C3CC[C@@]4(O)[C@@H]5CC(=O)[C@H]6CC(=O)CC[C@]6(C)C5C[C@H]4[C@@H]3CN2C1 (some centres undefined) | > 20 | > 20 |
| Cc1nnc(SCC2=C(C(=O)O)N3C(=O)C(NC(=O)C(N)c4ccc(O)cc4)C3SC2)s1 (centres undefined) | > 20 | > 20 |
| Nc1ccccc1S(N)(=O)=O | > 20 | > 20 |
| CN(C)CCN(Cc1ccc(Cl)s1)c1ccccn1 [CHLOROTHEN] | > 20 | > 20 |
| CCN(Cc1ccccc1)C(=O)Cn1c(=O)n(C)c2cnc(-c3ccccc3)nc21 | > 20 | > 20 |
| CN1CCN(C(c2ccccc2)c2ccc(Cl)cc2)CC1 (centres undefined) [CHLORCYCLIZINE] | > 20 | > 20 |
| Cn1cnc([N+](=O)[O-])c1Sc1nc(N)nc2[nH]cnc12 [THIAMIPRINE] | > 20 | > 20 |
| CCCc1c2oc(C(=O)O)cc(=O)c2cc2c(=O)cc(C(=O)O)n(CC)c12 [NEDOCROMIL] | > 20 | > 20 |
| c1ccc([C@@H]2CN=C3NCCN32)cc1 | > 20 | > 20 |
| O=C(c1ccc2nonc2c1)N1CCCCC1 [FARAMPATOR] | > 20 | > 20 |
| CCN(CC)CCOc1ccccc1-n1c(C)ccc1-c1ccccc1 [LEIOPYRROLE] | > 20 | > 20 |
| NC(=O)[C@@H](CCC(F)(F)F)N(Cc1ccc(-c2ncon2)cc1F)S(=O)(=O)c1ccc(Cl)cc1 | > 20 | > 20 |
| CN1CC[C@]2(C)c3cc(OC(=O)Nc4ccccc4)ccc3N(C)[C@H]12 [BUNTANETAP] | > 20 | > 20 |
| CN(C)[C@@H]1C(O)=C(C(N)=O)C(=O)[C@@]2(O)C(O)=C3C(=O)c4c(O)ccc(Cl)c4[C@@H](O)[C@H]3C[C@@H]12 [DEMECLOCYCLINE] | > 20 | > 20 |
